The source of these data is ChEMBL document CHEMBL6127053, “Discovery of orally bioavailable phosphonate prodrugs of potent ENPP1 inhibitors for cancer treatment” (Eur J Med Chem, 2024).

Molecules are shown by their SMILES. Values after ≈ are worked out from the molar mass of the structure shown. Bounds are passed on as bounds.

The target of data set [1] is Cytochrome P450 3A4 (Homo sapiens, UniProt P08684). Briefly: Inhibition of CYP3A4 (unknown origin). Type of data set: ADME.
For data set [2], the target named is Cytochrome P450 2D6 (Homo sapiens, UniProt P10635). Briefly: Inhibition of CYP2D6 (unknown origin). It counts as ADME.
Data set [3] deals with Cytochrome P450 2C9 (Homo sapiens, UniProt P11712). Briefly: Inhibition of CYP2C9 (unknown origin). Type of data set: ADME.
The target of data set [4] is Cytochrome P450 2C19 (Homo sapiens, UniProt P33261). Briefly: Inhibition of CYP2C19 (unknown origin). Type of data set: ADME.
Data set [5] deals with T1, Cytochrome P450 1A2 (Homo sapiens, UniProt P05177).
T1 sequence (P05177 whole entry): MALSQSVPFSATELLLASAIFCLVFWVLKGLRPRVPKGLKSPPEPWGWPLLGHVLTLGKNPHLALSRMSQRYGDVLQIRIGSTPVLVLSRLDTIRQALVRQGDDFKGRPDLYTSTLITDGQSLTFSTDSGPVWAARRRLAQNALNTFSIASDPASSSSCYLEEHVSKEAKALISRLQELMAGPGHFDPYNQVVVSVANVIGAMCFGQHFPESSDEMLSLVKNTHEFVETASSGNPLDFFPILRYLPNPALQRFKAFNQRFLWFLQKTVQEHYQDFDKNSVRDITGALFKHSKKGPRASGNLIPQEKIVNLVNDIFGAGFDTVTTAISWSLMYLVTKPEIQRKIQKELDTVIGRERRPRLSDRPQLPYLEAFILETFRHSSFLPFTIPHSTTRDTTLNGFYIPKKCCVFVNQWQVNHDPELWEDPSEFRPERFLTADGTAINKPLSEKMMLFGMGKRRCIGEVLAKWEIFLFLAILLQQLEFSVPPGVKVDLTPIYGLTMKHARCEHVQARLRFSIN
Briefly: Inhibition of CYP1A2 (unknown origin). Type of data set: ADME.

The target of data set [6] is Voltage-gated inwardly rectifying potassium channel KCNH2 (Homo sapiens, UniProt Q12809). Briefly: Inhibition of hERG. Type of data set: toxicity. For orientation: hERG is a cardiac potassium channel; its block is linked to QT prolongation.
In data set [7] the target is T2, Ectonucleotide pyrophosphatase/phosphodiesterase family member 1 (Homo sapiens, UniProt P22413).
T2 sequence (P22413 whole entry): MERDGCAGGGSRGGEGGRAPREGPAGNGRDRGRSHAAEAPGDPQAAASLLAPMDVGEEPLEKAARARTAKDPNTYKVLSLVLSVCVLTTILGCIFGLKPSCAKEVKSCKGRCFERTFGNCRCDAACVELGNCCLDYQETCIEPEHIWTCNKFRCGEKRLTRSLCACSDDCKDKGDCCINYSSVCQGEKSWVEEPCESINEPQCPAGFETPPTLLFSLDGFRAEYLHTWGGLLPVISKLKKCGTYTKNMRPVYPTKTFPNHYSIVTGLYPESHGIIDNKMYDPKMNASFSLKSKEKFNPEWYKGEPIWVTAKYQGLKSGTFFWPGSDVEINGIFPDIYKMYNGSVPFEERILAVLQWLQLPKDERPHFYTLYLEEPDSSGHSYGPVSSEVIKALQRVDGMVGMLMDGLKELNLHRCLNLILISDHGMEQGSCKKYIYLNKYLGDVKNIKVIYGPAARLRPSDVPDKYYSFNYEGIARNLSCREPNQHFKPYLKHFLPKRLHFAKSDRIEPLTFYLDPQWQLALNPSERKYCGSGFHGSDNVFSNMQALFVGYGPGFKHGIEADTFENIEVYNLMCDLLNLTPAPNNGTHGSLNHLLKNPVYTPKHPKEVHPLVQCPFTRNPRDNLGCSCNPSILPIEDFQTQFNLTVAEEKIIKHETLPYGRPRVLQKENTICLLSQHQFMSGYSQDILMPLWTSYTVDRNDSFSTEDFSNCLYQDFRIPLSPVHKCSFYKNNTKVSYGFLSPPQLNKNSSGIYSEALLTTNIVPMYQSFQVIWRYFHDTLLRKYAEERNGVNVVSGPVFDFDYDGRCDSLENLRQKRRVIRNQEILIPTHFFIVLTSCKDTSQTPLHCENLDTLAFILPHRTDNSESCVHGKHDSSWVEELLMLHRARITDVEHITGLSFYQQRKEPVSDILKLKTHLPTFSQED
Briefly: Inhibition of human recombinant ENPP1 at pH 8.

The nature of data set [8]: Prodrug conversion in mouse assessed as AUC(0 to t) of (4-((7-Methoxy-1,8-naphthyridin-4yl)oxy)benzyl)phosphonic acid metabolite at 5 mg/kg, po measured for 24 hrs by LC-MS/MS analysis. Type of data set: ADME, organism-based. The conditions noted are these: in vivo.
A short description of data set [9]: Prodrug conversion in mouse assessed as half-life of (4-((7-Methoxy-1,8-naphthyridin-4yl)oxy)benzyl)phosphonic acid metabolite at 5 mg/kg, po measured for 24 hrs by LC-MS/MS analysis. The conditions noted are these: in vivo. Type of data set: ADME, organism-based.
The test system of data set [10] is Panc02. Briefly: Synergistic antitumor activity against mouse Panc02 cells implanted in C57BL/6 mouse assessed as inhibition of tumor growth by measuring combination ratio at 200 mg/kg, po bid for 35 days and irradiated with 5Gy radiation on days 1,8,15,22,29 and measured on day 35. Type of data set: functional. To be noted: time 35 day.
A short description of data set [11]: Prodrug conversion in rat assessed as AUC (0 to t) of (4-((7-Methoxy-1,8-naphthyridin-4yl)oxy)benzyl)phosphonic acid metabolite at 5 mg/kg, po measured for 24 hrs by LC-MS/MS analysis. Type of data set: ADME, organism-based. To be noted: in vivo.
The subject of data set [12] is Panc02. Briefly: Antitumor activity against mouse Panc02 cells implanted in C57BL/6 mouse assessed as inhibition of tumor growth at 200 mg/kg, po bid for 35 days and measured on day 35. Type of data set: functional. To be noted: Panc02, 840 h, time 35 day, read-out: TGI.
A short description of data set [13]: Prodrug conversion in rat assessed as oral bioavailability of (4-((7-Methoxy-1,8-naphthyridin-4yl)oxy)benzyl)phosphonic acid metabolite at 5 mg/kg measured for 24 hrs by LC-MS/MS analysis. To be noted: in vivo. Type of data set: ADME, organism-based.
A short description of data set [14]: Prodrug conversion in rat assessed as half-life of (4-((7-Methoxy-1,8-naphthyridin-4yl)oxy)benzyl)phosphonic acid metabolite at 5 mg/kg, po measured for 24 hrs by LC-MS/MS analysis. Type of data set: ADME, organism-based. To be noted: in vivo.
The nature of data set [15]: Toxicity in C57BL/6 mouse implanted with mouse Panc02 cells assessed as effect on body weight at 200 mg/kg, po bid for 35 days. It counts as organism-based. The conditions noted are these: in vivo, 840 h, time 35 day.
Data set [16] is described as follows: Prodrug conversion in dog assessed as AUC(0 to t) of (4-((7-Methoxy-1,8-naphthyridin-4yl)oxy)benzyl)phosphonic acid metabolite at 2 mg/kg, po measured for 24 hrs by LC-MS/MS analysis. It counts as ADME, organism-based, Canis lupus familiaris. To be noted: in vivo.
Data set [17] is described as follows: Prodrug conversion in dog assessed as oral bioavailability of (4-((7-Methoxy-1,8-naphthyridin-4yl)oxy)benzyl)phosphonic acid metabolite at 2 mg/kg measured for 24 hrs by LC-MS/MS analysis. Type of data set: ADME, organism-based, Canis lupus familiaris. To be noted: in vivo.
Data set [18] can be described thus: Prodrug conversion in mouse assessed as oral bioavailability of (4-((7-Methoxy-1,8-naphthyridin-4yl)oxy)benzyl)phosphonic acid metabolite at 5 mg/kg measured for 24 hrs by LC-MS/MS analysis. Type of data set: ADME, organism-based. The conditions noted are these: in vivo.
Data set [19] is described as follows: physchem. To be noted: aqueous, pH 7.4.
Description: Aqueous solubility of the compound at pH 7.4
A short description of data set [20]: Prodrug conversion in C57BL/6 mouse implanted with mouse Panc02 cells assessed as time during which unbound plasma concentration of (4-((7-Methoxy-1,8-naphthyridin-4yl)oxy)benzyl)phosphonic acid metabolite exceeds IC90 for inhibition of ENPP1 in mouse EL4 cells at 200 mg/kg, po bid for 35 days. It counts as ADME, organism-based. To be noted: in vivo, 840 h, time 35 day.

Data set [21] concerns Panc02. Briefly: Synergistic antitumor activity against mouse Panc02 cells implanted in C57BL/6 mouse assessed as inhibition of tumor growth at 200 mg/kg, po bid for 35 days and irradiated with 5Gy radiation on days 1,8,15,22,29 and measured on day 35 (reference value: 26%). It counts as functional. To be noted: Panc02, light or radiation study, 840 h, time 35 day, read-out: TGI.

Data set [22] is described as follows: Prodrug conversion in dog assessed as half-life of (4-((7-Methoxy-1,8-naphthyridin-4yl)oxy)benzyl)phosphonic acid metabolite at 2 mg/kg, po measured for 24 hrs by LC-MS/MS analysis. It counts as ADME, organism-based, Canis lupus familiaris. To be noted: in vivo.
The target of data set [23] is T2, Ectonucleotide pyrophosphatase/phosphodiesterase family member 1. Briefly: Inhibition of ENPP1 (unknown origin) at pH 7.5.
Data set [24] shares this target. Briefly: Inhibition of ECD-His-tagged human recombinant ENPP1 using 2',3'-cGAMP as substrate preincubated with enzyme for 15 mins followed by substrate addition and incubated in R1 reaction buffer for 1 hr and treated in R2 reaction buffer for 1 hr measured at pH 7.5 by luminescence based analysis.
Data set [25] concerns the target T3, Ectonucleotide pyrophosphatase/phosphodiesterase family member 1 (Mus musculus, UniProt P06802).
T3 sequence (P06802 whole entry): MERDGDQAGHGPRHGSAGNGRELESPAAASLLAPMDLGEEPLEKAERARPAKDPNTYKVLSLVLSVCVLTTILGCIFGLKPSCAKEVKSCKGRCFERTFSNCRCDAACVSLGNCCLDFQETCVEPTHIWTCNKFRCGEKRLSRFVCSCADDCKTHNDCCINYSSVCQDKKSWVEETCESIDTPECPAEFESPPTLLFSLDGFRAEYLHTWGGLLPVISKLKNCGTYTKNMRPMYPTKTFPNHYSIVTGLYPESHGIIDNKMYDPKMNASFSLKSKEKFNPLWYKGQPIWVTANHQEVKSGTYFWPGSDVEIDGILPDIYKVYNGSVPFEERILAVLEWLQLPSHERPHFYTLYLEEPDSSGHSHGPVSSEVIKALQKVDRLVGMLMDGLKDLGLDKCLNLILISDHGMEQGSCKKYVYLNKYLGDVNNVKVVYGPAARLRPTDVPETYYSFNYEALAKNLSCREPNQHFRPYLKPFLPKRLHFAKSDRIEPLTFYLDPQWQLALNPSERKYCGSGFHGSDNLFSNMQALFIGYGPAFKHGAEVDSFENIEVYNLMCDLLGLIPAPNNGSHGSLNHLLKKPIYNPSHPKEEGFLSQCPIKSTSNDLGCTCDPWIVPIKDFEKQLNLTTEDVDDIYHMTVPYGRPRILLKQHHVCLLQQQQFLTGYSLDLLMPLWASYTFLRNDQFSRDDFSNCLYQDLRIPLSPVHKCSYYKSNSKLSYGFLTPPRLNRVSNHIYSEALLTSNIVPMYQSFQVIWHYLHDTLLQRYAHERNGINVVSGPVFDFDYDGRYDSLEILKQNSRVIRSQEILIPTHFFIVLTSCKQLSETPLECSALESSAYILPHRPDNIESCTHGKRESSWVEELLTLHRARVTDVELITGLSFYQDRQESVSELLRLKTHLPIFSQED

In data set [26] the target is T2, Ectonucleotide pyrophosphatase/phosphodiesterase family member 1. Briefly: Inhibition of ENPP1 (unknown origin) at pH 8.8.

Sequence of Cytochrome P450 2C19 (P33261 whole entry): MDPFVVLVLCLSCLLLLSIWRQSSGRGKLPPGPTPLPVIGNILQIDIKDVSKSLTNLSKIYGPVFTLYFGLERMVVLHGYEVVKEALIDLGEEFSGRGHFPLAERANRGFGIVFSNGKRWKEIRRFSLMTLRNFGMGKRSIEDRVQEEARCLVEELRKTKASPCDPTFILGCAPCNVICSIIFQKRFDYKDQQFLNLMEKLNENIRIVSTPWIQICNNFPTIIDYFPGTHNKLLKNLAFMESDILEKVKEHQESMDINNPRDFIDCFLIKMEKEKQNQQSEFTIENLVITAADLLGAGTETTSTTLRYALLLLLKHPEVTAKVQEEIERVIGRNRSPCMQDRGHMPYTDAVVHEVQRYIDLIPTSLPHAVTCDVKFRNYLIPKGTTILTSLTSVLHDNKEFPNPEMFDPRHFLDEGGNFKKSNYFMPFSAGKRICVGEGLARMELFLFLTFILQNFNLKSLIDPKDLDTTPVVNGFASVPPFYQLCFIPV
Sequence of Cytochrome P450 3A4 (P08684 whole entry): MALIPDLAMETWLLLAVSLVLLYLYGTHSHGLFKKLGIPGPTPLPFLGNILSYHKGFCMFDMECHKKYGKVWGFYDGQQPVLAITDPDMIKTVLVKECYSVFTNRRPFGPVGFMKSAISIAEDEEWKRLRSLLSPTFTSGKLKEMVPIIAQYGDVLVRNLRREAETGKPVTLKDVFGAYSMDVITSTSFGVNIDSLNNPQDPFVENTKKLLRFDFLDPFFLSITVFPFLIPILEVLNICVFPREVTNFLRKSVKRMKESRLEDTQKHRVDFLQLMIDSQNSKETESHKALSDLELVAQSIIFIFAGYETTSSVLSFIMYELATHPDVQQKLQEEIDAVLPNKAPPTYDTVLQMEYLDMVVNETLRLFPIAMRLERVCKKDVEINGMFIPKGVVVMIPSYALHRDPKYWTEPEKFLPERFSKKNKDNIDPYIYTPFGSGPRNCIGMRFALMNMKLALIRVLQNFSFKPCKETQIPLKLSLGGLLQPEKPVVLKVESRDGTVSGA
Sequence of Cytochrome P450 2D6 (P10635 whole entry): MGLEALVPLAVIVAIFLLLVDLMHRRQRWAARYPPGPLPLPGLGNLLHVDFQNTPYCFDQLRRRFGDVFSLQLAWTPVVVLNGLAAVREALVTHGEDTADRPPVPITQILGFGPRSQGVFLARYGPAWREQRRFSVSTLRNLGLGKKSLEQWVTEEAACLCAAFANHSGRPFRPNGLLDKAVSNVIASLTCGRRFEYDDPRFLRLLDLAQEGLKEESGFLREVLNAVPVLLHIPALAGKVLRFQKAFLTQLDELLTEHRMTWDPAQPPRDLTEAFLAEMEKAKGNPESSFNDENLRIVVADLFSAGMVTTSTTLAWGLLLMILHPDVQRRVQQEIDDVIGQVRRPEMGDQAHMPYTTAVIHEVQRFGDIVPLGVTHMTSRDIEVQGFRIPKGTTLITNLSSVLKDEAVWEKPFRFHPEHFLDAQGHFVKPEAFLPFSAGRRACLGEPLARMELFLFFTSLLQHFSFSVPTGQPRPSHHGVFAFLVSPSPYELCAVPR
Sequence of Cytochrome P450 2C9 (P11712 whole entry): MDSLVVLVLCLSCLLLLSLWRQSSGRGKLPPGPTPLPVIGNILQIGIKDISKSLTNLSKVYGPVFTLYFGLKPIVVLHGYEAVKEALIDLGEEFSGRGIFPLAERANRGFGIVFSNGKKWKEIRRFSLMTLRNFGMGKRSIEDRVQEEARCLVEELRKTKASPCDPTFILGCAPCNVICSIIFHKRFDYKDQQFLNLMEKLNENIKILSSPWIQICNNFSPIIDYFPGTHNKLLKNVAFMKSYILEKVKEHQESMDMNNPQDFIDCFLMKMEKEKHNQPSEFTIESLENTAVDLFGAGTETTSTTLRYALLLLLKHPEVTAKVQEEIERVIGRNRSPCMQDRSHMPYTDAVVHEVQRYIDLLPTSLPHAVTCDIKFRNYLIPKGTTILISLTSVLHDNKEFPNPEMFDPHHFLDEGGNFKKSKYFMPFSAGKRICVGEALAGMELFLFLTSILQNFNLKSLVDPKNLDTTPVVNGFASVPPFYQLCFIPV
Sequence of Voltage-gated inwardly rectifying potassium channel KCNH2 (Q12809 whole entry): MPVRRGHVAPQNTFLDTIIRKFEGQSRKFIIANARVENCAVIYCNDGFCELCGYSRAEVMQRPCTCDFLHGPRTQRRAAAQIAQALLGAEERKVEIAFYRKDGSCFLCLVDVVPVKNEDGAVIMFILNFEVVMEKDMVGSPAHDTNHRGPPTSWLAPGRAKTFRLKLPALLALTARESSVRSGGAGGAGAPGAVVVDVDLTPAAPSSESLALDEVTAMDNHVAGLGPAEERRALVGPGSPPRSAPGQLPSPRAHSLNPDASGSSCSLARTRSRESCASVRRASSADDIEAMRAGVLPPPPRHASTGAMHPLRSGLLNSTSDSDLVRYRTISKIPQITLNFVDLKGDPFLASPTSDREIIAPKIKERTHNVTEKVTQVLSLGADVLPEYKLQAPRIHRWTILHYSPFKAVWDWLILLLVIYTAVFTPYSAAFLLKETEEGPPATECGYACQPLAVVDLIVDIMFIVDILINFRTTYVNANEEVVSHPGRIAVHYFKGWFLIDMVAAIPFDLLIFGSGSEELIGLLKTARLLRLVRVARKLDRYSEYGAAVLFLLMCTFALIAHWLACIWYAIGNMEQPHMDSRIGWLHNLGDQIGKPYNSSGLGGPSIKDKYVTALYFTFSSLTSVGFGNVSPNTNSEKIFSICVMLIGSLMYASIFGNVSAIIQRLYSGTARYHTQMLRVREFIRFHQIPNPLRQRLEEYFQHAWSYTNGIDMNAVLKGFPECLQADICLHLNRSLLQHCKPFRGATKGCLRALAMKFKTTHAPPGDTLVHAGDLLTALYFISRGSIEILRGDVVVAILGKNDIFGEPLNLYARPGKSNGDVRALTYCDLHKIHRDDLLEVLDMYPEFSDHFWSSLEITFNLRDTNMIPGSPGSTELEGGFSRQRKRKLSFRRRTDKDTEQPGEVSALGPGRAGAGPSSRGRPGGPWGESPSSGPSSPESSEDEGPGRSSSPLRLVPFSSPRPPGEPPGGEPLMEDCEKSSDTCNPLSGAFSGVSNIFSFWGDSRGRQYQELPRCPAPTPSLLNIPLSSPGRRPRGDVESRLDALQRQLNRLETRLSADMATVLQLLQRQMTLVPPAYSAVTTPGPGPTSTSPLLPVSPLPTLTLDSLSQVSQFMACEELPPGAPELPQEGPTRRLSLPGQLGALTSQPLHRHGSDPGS

Turning to `COc1ccc2c(Oc3ccc(CC(=O)NO)cc3)ccnc2n1`, the IC50 in data set [1], in [2], in data set [3], in data set [4] and in data set [5] was > 50 µM each time.
Take `COc1ccc2c(Oc3ccc(CP(=O)(O)O)cc3)ccnc2n1`: the IC50 (usually the midpoint of a concentration-inhibition curve) in data set [1] was > 50 µM; in data set [6] it was > 30 µM; in data set [2] it was > 50 µM; in data set [3], > 50 µM; in data set [4] it was > 50 µM; in [5], > 50 µM.
`COc1ccc2c(Oc3ccc(NS(N)(=O)=O)cc3)ccnc2c1`: the Ki (as a rule, the dissociation constant of the complex between target and ligand, obtained from inhibition or displacement) in data set [7] was < 0.1 µM.
Turning to `COc1ccc2c(Oc3ccc(C4(C(=O)NO)CCCC4)cc3)ccnc2n1`, the IC50 amounted to 9.2 µM in data set [3] and 8.2 µM in data set [4].
For the compound `COc1ccc2c(Oc3ccc(CP(=O)(OCOC(=O)C(C)(C)C)OCOC(=O)C(C)(C)C)cc3)ccnc2n1`, the AUCt in data set [8] turned out to be 937 ng·h/mL; in data set [11] it was 5984 ng·h/mL; in data set [16], 793 ng·h/mL. Further, the values for the t1/2 in data set [9], in data set [14] and in [22] were 4.2 h, 4.22 h and 1.8 h, respectively. In addition, the Ratio in [10] is recorded as 1.2. For the same compound, the IC50 in data set [1] is > 50 µM; in data set [6], > 30 µM; in [2] it was > 50 µM; in data set [3] it was > 50 µM; in [4] it was > 50 µM; in data set [5], > 50 µM. For the same compound, the inhibition in vivo at 200 mg/kg in data set [12] was 11%; in data set [21], 51%. For the same compound, the F in data set [13] stood at 39.8%; in data set [17], 21.1%; in data set [18], 17%. Also, the Activity result in data set [15] is given as “Non-Toxic”. The amount in solution in [19] (solubility) came to 20.6 µM (≈ 11.8 µg/mL). For the same compound, the “T>IC90” value in data set [20] is 18 h.
For the compound `COc1cccc2c(N3CCC(CCP(=O)(O)O)CC3)ncnc12`, in data set [23], the Ki is < 0.002 µM. Moreover, the results for the IC50 in [24] and in data set [25] were 0.0062 µM and 0.0022 µM, respectively.
For the compound `NC(=O)c1ccc2c(ncn2Cc2ccc(P(=O)(O)O)cc2)n1`, the Ki in [26] was < 0.01 µM.
`COc1ccc2c(Oc3ccc(CC(=O)NO)cc3)ccnc2c1`: the IC50 is 10.3 µM in data set [1]; 4.8 µM in data set [2]; 2.3 µM in data set [3]; 4 µM in data set [4]; 8.1 µM in data set [5].
